The text below walks through data of patent US7718641B2, “Pyrrolo [3,4-H] isoquinoline compounds and methods for modulating gated ion channels” (Aros Pharma ApS, priority 2005, dated 2010).

Test [1] has as its system formalin-induced pain. The test is described as follows: Formalin test, model of acute tonic pain. The settings on record: Automated Nociception Analyser, n=6-8. Type of test: in vivo, rat. The protocol: Male Sprague-Dawley rats are housed together in groups of three animals under standard conditions with unrestricted access to food and water. All experiments are conducted according to the ethical guidelines for investigations of experimental pain in conscious animals (Zimmerman, 1983)
Assessment of formalin-induced flinching behavior in normal, uninjured rats (body weight 150-180 g) was made with the use of an Automated Nociception Analyser (University of California, San Diego, USA). Briefly, this involved placing a small C-shaped metal band (10 mm wide×27 mm long) on the hindpaw of the rat to be tested. The rats (four rats were included in each testing session) were then placed in a cylindrical plexiglass observation chamber (diameter 30.5 cm and height 15 cm) for 20 min for adaptation purposes prior to being administered drug or vehicle according to the experimental paradigm being followed. After adaptation, individual rats were then gently restrained and formalin (5% in saline, 50 μl, s.c.) was injected into the plantar surface of the hindpaw using a 27G needle. Rats were then returned to their separate observation chambers, each of which were in turn situated upon an enclosed detection device consisting of two electromagnetic coils designed to produce an electromagnetic field in which movement of the metal band could be detected. The analogue signal was then digitised and a software algorithm (LabView) applied to enable discrimination of flinching behaviour from other paw movements. A sampling interval of 1 min was used and on the basis of the resulting response patterns 5 phases of nociceptive behaviour were identified and scored: first phase (P1; 0-5 min), interphase (Int; 6-15 min), second phase (P2; […]), phase 2A (P2A; 16-40 min) and phase 2B (P2B; 41-60 min).
Nociceptive behavior was also determined manually every 5 min by measuring the amount of time spent in each of four behavioral categories: 0, treatment of the injected hindpaw is indistinguishable from that of the contralateral paw; 1, the injected paw has little or no weight placed on it; 2, the injected paw is elevated and is not in contact with any surface; 3, the injected paw is licked, bitten, or shaken. A weighted nociceptive score, ranging from 0 to 3 was calculated by multiplying the time spent in each category by the category weight, summing these products, and dividing by the total time for each 5 min block of time. (Coderre et al., Pain 1993; 54: 43). On the basis of the resulting response patterns, […] of nociceptive behavior were identified and scored: first phase (P1; 0-5 min), interphase (Int; 6-15 min), second phase (P2; […]), phase 2A (P2A; 16-40 min) and phase 2B (P2B; 41-60 min). […]

In test [2] the target is T1, hASIC1a (Homo sapiens, UniProt P78348).
T1 sequence (P78348 1-528): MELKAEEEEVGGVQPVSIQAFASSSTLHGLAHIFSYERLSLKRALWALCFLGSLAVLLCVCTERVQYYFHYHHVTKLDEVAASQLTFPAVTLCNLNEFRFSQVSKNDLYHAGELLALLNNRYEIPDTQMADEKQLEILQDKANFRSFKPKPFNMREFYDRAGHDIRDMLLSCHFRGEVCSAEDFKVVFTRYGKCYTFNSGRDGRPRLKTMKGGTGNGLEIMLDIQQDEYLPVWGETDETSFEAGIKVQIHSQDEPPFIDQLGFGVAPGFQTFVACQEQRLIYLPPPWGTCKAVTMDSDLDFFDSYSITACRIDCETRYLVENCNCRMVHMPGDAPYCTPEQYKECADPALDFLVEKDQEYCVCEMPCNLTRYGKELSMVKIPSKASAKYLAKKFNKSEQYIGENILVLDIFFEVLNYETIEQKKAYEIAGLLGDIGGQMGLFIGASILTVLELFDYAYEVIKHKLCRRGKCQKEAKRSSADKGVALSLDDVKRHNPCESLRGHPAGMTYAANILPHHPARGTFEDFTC
The test is described as follows: Calcium-imaging (FLIPR, Fluo-4) of acid (MES)-induced calcium response in ASIC1a expressing HEK293 cells. Type of test: cell-based. The arrangement: expressed in transfected cells; host or cells: HEK293. To be noted: for pIC50: calcium mobilization assay, MES-induced calcium response, HEK293, n=3-7; for inhibitory effect on acid-induced hASIC1a activity (dose-response curve): HEK293 transfected with hASIC1a, intracellular calcium, increasing concentrations. How it is done: ASIC1a expressing HEK293 cells are grown in culture medium (DMEM with 10% FBS), in polystyrene culture flasks ([…]) at 37° C. in a humidified atmosphere of 5% CO2. Confluency of cells should be 80-90% on day of plating. Cells are rinsed with 10 ml of PBS and re-suspended by addition of culture medium and trituration with a 25 ml pipette.
The cells are seeded at a density of approximately 1×10^6 cells/ml (100 μl/well) in black-walled, clear bottom, 96-well plates pre-treated with 10 mg/l poly-D-lysin (75 μl/well for ≧30 min). Plated cells were allowed to proliferate for 24 h before loading with dye.
Fluo-4/AM (1 mg, Molecular Probes) is dissolved in 912 μl DMSO. The Fluo-4/AM stock solution (1 mM) is diluted with culture medium to a final concentration of 2 μM (loading solution).
The culture medium is aspirated from the wells, and 50 μl of the Fluo-4/AM loading solution is added to each well. The cells are incubated at 37° C. for 30 min.
After the loading period, the loading solution is aspirated and the cells are washed twice with 100 μl modified Assay Buffer (145 mM NaCl, 5 mM KCl, 5 mM CaCl2, 1 mM MgCl2, 10 mM HEPES, pH 7.4) to remove extracellular dye. Following the second wash, 100 μl modified Assay Buffer is added to each well and the fluorescence is measured in FLIPR™ or FlexStation™ (Molecular Devices, USA), or any other suitable equipment known to the skilled in the art.
Temperature: Room temperature (20-22° C.)
First addition: 50 μl test solution at a rate of 30 μl/sec and a starting height of 100 μl.
Second addition: 50 μl MES solution (20 mM, 5 mM final concentration) at a rate of 35 μl/sec and a starting height of 150 μl.
Reading intervals: pre-incubation—10 sec×7 and 3 sec×3 antagonist phase—3 sec×17 and 10 sec×12
Addition plates (compound test plate and MES plate) are placed on the right and left positions in the FLIPR tray, respectively. Cell plates are placed in the middle position and the ASIC1a program is effectuated. FLIPR will then take the appropriate measurements in accordance with the interval settings above. Fluorescence obtained after stimulation is corrected for the mean basal fluorescence (in modified Assay Buffer).
The MES-induced peak calcium response, in the presence of test substance, is expressed relatively to the MES response alone. Test substances that block the MES-induced calcium response are re-tested in triplicates. Confirmed hits are picked for further characterization by performing full dose-response curves to determine potency of each hit compound as represented by the IC50 values (i.e., the concentration of the test substance which inhibits 50% of the MES-induced calcium response; see, for example, FIGS. 1A, 1B and 1C, and FIGS. 13A and 13B).
In general terms: Calcium assays in cells follow changes in intracellular calcium, usually with a dye or a luminescent sensor.

Test [3] concerns the target T1, hASIC1a. The experiment in a line: Whole-cell voltage clamp of pH-evoked response of human ASIC1a stably transfected in CHO cells. The test is classed as cell-based. The arrangement: expressed in transfected cells. The settings on record: for effect on proton-gated currents from CHO cells expressing hASIC1a: 1 μM, voltage clamp. The protocol: FIG. 3 illustrates the inhibitory effect of Compound A on acid-evoked activation of human ASIC1a stably transfected in CHO cells. […] In this example, the size of the pH-evoked response was determined by measuring the area under the curve of the response (total charge transfer) and normalized to the control response. FIG. 3B depicts an example of an hASIC1a current (whole cell voltage clamp, −60 mV) evoked by a pH 6.8-buffered solution (from pH 7.4) in the presence or absence of Compound A (3 μM).
These endogenous proton-activated inward currents were recorded in the presence and absence of Compound J (1 μM) or Compound K (1 μM) using the whole cell configuration of the patch clamp method (voltage clamp mode).
All experiments are performed at room temperature (20-25° C.) in voltage clamp using conventional whole cell patch clamp methods (Neher, E., et al. (1978) Pfluegers Arch 375:219-228).
Coverslips with the cells are transferred to a 15 μl experimental chamber mounted on the stage of an inverted microscope (IMT-2, Olympus) supplied with Nomarski optics. Cells are continuously superfused with extracellular saline at a rate of 2.5 ml/min. After giga-seal formation, the whole cell configuration is attained by suction. The cells are held at a holding voltage of −60 mV and at the start of each experiment the current is continuously measured for 45 s to ensure a stable baseline. Solutions of low pH (<7) are delivered to the chamber through a custom-made gravity-driven flowpipe, the tip of which is placed approximately 50 μm from the cell. Application is triggered when the tubing connected to the flowpipe is compressed by a valve controlled by the Pulse-software. Initially, low pH (in general, pH 6.5) is applied for 5 s every 60 s. The sample interval during application is 5501s. After stable responses are obtained, the extracellular saline as well as the low-pH solution are switched to solutions containing the compound to be tested. The compound is present until responses of a repeatable amplitude are achieved. Current amplitudes are measured at the peak of the responses, and effect of the compounds is calculated as the amplitude at compound equilibrium divided by the amplitude of the current evoked by the pulse just before the compound was included.
The following salt solutions are used: extracellular solution (mM): NaCl (140), KCl (4), CaCl2 (2), MgCl2 (4), HEPES (10, pH 7.4); intracellular solution (mM): KCl (120), KOH (31), MgCl2 (1.785), EGTA (10), HEPES (10, pH 7.2). In general, compounds for testing are dissolved in 50% DMSO at 500 fold the highest concentration used.
Similar findings are shown in FIG. 3 with the human ASIC1a stably transfected in CHO cells. FIG. 3A compares the dose-response relationship between Compound A and amiloride [determined by measuring the area under the curve of the response (total charge transfer) and normalized to the control response]. […] FIGS. 14A and 14B show similar results for Compounds J and K.

The structures appear in SMILES notation. pIC50: −log10 of the molar value.

As usually defined, the pIC50 is the IC50 on a negative log10 scale, so that one unit is a factor of ten. Consider `CCN1CCc2c(-c3cc(F)ccc3OC)cc3c(c2C1)NC(=O)/C3=N/O` [Compound B, 5-(5-fluoro-2-methoxyphenyl)-6,7,8,9-tetrahydro-3-(hydroxyimino)-8-ethyl-1H-pyrrolo[3,2-h]isoquinoline-2(3H)-one], for which the “pain intensity as evaluated by the flinching behavior” value in test [1] was “dose-dependent reduction of the pain intensity”. In addition, the pIC50 in test [2] was 7.52 to 7.70. Take `COc1ccc(Cl)cc1-c1cc2c(c3c1CCN(C)C3)NC(=O)/C2=N/O` [Compound C, 5-(5-chloro-2-methoxyphenyl)-6,7,8,9-tetrahydro-3-(hydroxyimino)-8-methyl-1H-pyrrolo[3,2-h]isoquinoline-2(3H)-one]: the pIC50 in test [2] was 6.52 to 6.70. In the case of `Cc1cc(C)cc(-c2cc3c(c4c2CCN(C)C4)NC(=O)/C3=N/O)c1` [Compound D, 5-(3,5-dimethylphenyl)-6,7,8,9-tetrahydro-3-(hydroxyimino)-8-methyl-1H-pyrrolo[3,2-h]isoquinoline-2(3H)-one], the pIC50 in test [2] is 6.46 to 6.60. As to `CCN1CCc2c(-c3cc(C)cc(C)c3)cc3c(c2C1)NC(=O)/C3=N/O` [Compound E, 5-(3,5-dimethylphenyl)-6,7,8,9-tetrahydro-3-(hydroxyimino)-8-ethyl-1H-pyrrolo[3,2-h]isoquinoline-2(3H)-one], in test [2], the “inhibitory effect on acid-induced hASIC1a activity (dose-response curve)” value (“inhibitory effect” below) was “dose-dependently inhibit”. For `CCN1CCc2c(-c3cc(C)ccc3C)cc3c(c2C1)NC(=O)/C3=N/O` [Compound F, 5-(2,5-dimethylphenyl)-6,7,8,9-tetrahydro-3-(hydroxyimino)-8-ethyl-1H-pyrrolo[3,2-h]isoquinoline-2(3H)-one], the “inhibitory effect” value in test [2] is “dose-dependently inhibit”. Turning to `CCN1CCc2c(-c3cc(Cl)ccc3OC)cc3c(c2C1)NC(=O)/C3=N/O` [Compound G, 5-(5-chloro-2-methoxyphenyl)-6,7,8,9-tetrahydro-3-(hydroxyimino)-8-ethyl-1H-pyrrolo[3,2-h]isoquinoline-2(3H)-one], the “inhibitory effect” value in test [2] was “dose-dependently inhibit”. As for `CCN1CCc2c(-c3ccccc3OC)cc3c(c2C1)NC(=O)/C3=N/O` [Compound J, 8-ethyl-5-(2-methoxy-phenyl)-6,7,8,9-tetrahydro-1H-pyrrolo[3,2-h]isoquinoline-2,3-dione 3-oxime], in test [3], the “effect on proton-gated currents from CHO cells expressing hASIC1a” value is on record as “inhibitory effects”. In test [2], the pIC50 was 6.15 to 7.00. For the compound `CCOc1ccccc1-c1cc2c(c3c1CCN(CC)C3)NC(=O)/C2=N/O` [Compound K, 5-(2-ethoxy-phenyl)-8-ethyl-6,7,8,9-tetrahydro-1H-pyrrolo[3,2-h]isoquinoline-2,3-dione 3-oxime], the “effect on proton-gated currents from CHO cells expressing hASIC1a” value in test [3] was “inhibitory effects”. Besides, the pIC50 in test [2] is 5.77 to 6.52. For `N=C(N)NC(=O)c1nc(Cl)c(N)nc1N` [amiloride, reference compound], the “effect on size of human ASIC1a pH-evoked response (area under the curve, total charge transfer, normalized to control)” value in test [3] (CHO cells, -60 mV, pH 6.8 from pH 7.4) was “reduce the human ASIC1a pH-evoked response in a dose-dependent manner”.
